Data as given in patent publication US20040175691A1, “Use of the KCNQ2 and KCNQ3 genes for the discovery of agents useful in the treatment of neurological disorders” (priority 1998, published 2004).

How the values were obtained:
erg1 = biological target: T1, erg1 (Rattus norvegicus, UniProt O08962); experiment: Blockade of cloned erg1 channel in oocytes; format: cell-based; details: mean±s.e.m.
T1 construct: expressed in transfected cells; host or cells: oocytes (Xenopus)
T1 sequence (O08962 1-1163): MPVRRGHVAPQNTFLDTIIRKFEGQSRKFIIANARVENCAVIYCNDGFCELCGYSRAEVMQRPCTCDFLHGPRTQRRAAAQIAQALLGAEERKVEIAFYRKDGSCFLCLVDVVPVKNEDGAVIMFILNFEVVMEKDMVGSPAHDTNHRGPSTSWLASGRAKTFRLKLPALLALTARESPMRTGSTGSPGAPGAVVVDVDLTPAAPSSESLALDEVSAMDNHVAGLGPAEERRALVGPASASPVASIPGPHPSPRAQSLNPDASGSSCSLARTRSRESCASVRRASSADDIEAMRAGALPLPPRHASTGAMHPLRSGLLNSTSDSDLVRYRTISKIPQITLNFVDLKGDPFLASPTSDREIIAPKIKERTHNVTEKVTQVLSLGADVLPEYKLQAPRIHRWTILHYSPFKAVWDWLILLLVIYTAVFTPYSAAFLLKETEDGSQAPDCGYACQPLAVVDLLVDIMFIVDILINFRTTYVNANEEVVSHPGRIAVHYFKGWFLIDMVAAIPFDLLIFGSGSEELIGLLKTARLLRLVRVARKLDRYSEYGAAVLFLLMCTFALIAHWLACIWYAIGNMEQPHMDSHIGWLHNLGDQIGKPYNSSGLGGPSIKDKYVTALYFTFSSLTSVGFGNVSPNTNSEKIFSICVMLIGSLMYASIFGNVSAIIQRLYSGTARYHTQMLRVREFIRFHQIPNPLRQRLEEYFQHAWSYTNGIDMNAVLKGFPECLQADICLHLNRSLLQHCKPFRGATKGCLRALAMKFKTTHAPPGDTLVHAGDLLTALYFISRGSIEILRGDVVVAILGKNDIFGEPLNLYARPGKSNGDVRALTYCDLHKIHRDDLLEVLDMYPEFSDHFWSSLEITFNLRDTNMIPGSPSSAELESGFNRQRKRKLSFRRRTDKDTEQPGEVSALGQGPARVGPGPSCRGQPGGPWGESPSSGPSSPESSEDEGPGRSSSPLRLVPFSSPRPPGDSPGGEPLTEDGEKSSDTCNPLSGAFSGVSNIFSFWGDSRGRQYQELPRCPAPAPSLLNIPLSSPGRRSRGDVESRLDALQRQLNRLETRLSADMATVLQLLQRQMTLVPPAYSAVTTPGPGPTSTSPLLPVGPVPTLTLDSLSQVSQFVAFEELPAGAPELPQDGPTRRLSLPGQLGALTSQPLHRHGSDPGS

rat hippocampal neurons = rat hippocampal neurons (Lampe & Brown 1991); cited from earlier work
[1] = mammalian CNS; cited from earlier work
KQT1 = biological target: T2, KQT1 (Homo sapiens, UniProt P51787); experiment: Blockade of cloned KQT1 channel in oocytes; format: cell-based
T2 construct: expressed in transfected cells; host or cells: oocytes (Xenopus)
T2 sequence (P51787 whole entry): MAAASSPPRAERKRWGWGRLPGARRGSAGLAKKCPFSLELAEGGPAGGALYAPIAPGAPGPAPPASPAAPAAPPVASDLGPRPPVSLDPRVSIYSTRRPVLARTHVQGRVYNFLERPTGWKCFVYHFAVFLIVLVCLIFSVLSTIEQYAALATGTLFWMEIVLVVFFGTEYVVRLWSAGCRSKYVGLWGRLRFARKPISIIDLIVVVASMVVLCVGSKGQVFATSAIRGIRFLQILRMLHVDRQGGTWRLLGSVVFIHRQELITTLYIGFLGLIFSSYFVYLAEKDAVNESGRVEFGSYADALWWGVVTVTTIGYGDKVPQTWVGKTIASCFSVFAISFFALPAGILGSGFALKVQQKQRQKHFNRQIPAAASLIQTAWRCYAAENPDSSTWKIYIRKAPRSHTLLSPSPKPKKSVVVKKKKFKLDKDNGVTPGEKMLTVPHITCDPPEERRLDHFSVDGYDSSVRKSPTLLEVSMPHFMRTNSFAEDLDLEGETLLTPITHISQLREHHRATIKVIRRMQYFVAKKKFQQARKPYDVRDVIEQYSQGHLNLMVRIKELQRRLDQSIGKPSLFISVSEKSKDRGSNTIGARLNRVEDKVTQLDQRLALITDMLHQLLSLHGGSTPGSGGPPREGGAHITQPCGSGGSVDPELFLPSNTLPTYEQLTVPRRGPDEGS

M-current = biological target: T3, M-current (Rattus norvegicus, UniProt O88943+O88944); details: data adapted from Costa and Brown; read-out: IC50 for blockade of M-current; cited from earlier work
T3 construct: Recordings of the M-current in sympathetic neurons in intact ganglia were performed at room temperature; from tissue

KCNQ2 = KCNQ2 (Homo sapiens, UniProt O43526, DEL417-446); experiment: Perforated-patch voltage clamp of HEK 293E cells stably expressing hKCNQ2; format: cell-based; set-up: Full-length hKCNQ2 cDNAs were amplified from adult human brain cDNA; expressed in transfected cells; host or cells: 293 EBNA (HEK 293E) cells, episomal plasmid pm3AR-hKCNQ2-1, hygromycin B selection; details: FIG. 5 (0.3 uM)
Protocol: To determine whether the hygromycin B resistant HEK 293E cells express functional hKCNQ2 channels, the presence of potassium currents was evaluated using the perforated-patch voltage-clamp technique. Briefly, cells growing on plastic Petri dishes or poly-D-lysine-coated glass coverslips in DMEM (with 10% FBS and 250 ug/ml hygromycin B) at 37° C. and 5% CO2 were removed from the incubator and allowed to reach room temperature. Growth medium was replaced with a bathing solution containing, in mM: 140 NaCl, 3 KC1, 2.5 CaCl2, 1 MgCl2, 10 HEPES, 10 dextrose, pH adjusted to 7.2-7.4 with NaOH and osmolarity adjusted to 305-310 mosm with water. […]
Stock solution(s) of test compound(s) was (were) prepared immediately before use. […] Generally, the stock solution is about 0.1 mM to about 100 mM in DMSO and the aliquot is about 5 to about 100 uL, but it is understood that the concentration and volumes are not limited to these ranges for one skilled in the art can readily determine the appropriate concentrations and volumes dependening on the activity of the compound in the assay and the sensitivity of detection. […]

Compound | IC50 (erg1) [µM] | Spike frequency adaptation (rat hippocampal neurons) | K+-stimulated release of acetylcholine, dopamine and glutamate [1] | IC50 (KQT1) [µM] | IC50 (M-current) [µM] | Block of hKCNQ2 current (KCNQ2)
O=C1N(c2ccccc2)c2ccccc2C1(Cc1ccncc1)Cc1ccncc1 [Linopirdine, 3,3-bis(4-pyridinylmethyl)-1-phenylindolin-2-one] | 53 ± 4 | reduced spike frequency adaptation | enhance K^+-stimulated release of acetylcholine, dopamine and glutamate | 8.9 ± 0.9 | 7 ± 1.1 | 
O=C1c2ccccc2C(Cc2ccncc2)(Cc2ccncc2)c2ccccc21 [XE991, 10,10-bis(4-pyridinylmethyl)-9(10H)-anthracenone] | > 100 |  |  |  |  | reversibly blocks hKCNQ2
